From publication PMC3878827, “Synthesis and biological characterisation of ^18F-SIG343 and ^18F-SIG353, novel and high selectivity σ2 radiotracers, for tumour imaging properties” (EJNMMI Research, 2013)
Several values for one entry are separate records, joined by “and”; a condition that tells them apart may be missing. Equal values may be shown once.

Assays:
[1] = Metabolite studies (radio-TLC and radio-HPLC) in A375 tumour-bearing mice; format: in vivo; conditions: i.v., mean ± SD, n = 3
Experimental: The amount of intact ^18F-SIG343 and ^18F-SIG353 in the plasma, urine, tumour and brain cortex was quantified by thin layer chromatography (TLC) and radio-HPLC analysis. Mice were injected with 20 MBq of the radiotracer in 100 μL of saline. Mice were sacrificed 15, 60 and 120 min post injection of radiotracer. Whole organ samples of brain cortex and tumour samples (10 to 60 mg, minced) were added to unlabelled SIG343 or SIG353 (5 μL; 1 mg/mL), KF (5 μL; 1 mg/mL), MeCN (0.3 mL) and water (0.2 mL). Samples were exposed to an ultrasonic probe (Ultrasonic processor, Misonix Inc., Farmingdale, NY, USA) for 2 min before being centrifuged (5,000 rpm, 5 min). Plasma (50 μL) or urine (10 μL) samples were added to unlabelled SIG343 or SIG353, KF and 0.5 mL MeCN. Plasma samples were centrifuged (Heraeus Biofuge PrimoR, Thermo Fisher Scientific, Hudson, NH, USA; 5,000 rpm, 5 min), and the supernatant was removed and the radioactivity of the precipitated pellets was measured using a gamma counter to determine the extraction efficiency. If necessary, multiple extractions were performed to ensure maximum recovery of the radioactivity. An appropriate amount of the supernatant, based on the activity level (cpm), was collected (approximately 100 μL), diluted with water (up to 1.5 mL) for HPLC analysis or evaporated to dryness under vacuum for TLC analysis.
The TLC sample was reconstituted in methanol (25 to 50 μL) and mixed before being applied to the concentrating zone of the silica TLC plate. In a separate lane, the corresponding ^18F-labelled and ^19F-standard was also spotted. The TLC solvent systems of EtOAc/MeOH (70:30) were utilised for ^18F-SIG343 (rf 0.50) and ^18F-SIG353 (rf 0.55). The UV of the standard was identified using a UV lamp, while the movement and integration of the radioactive spots were visualised and measured using a phosphorimager (BAS 2500 Phosphorimager, Fujifilm, Tokyo, Japan) with Fujifilm Multigage 3.0 software. The intact radiotracer was identified as the radioactive spot containing the identical rf value to the corresponding ^19F-standard seen under the UV lamp. The integration of the active spot in relation to all the activity in the TLC lane gave the percentage of intact radiotracer.
Radio-HPLC analysis was performed following the method of Hilton et al.. A pre-column (Waters Oasis HLB, 25 μm, 20 × 3.9 mm) and a reversed phase HPLC column (Phenomenex Bondclone C18, 10 μm, 250 × 4.6 mm or Phenomenex Synergi Max-RP 80A C18, 4 μm, 250 × 4.6 mm) in series, with a switching valve between columns was utilised. The pre-column was washed with 1% acetonitrile in water for 3 min at 1.5 mL/min and then the solvent direction was switched to include the HPLC column. Both columns in series were then eluted over 10 min. The radioactivity peak corresponding to the authentic radiotracer was compared to the total activity registered in the radiochromatogram to give the fraction of unchanged radiotracer in the sample.

[2] = PET/CT imaging studies in A375 tumour-bearing mice; format: in vivo; conditions: 120-min PET scan
Experimental: The mouse was anaesthetised via inhalant isoflurane (Forthane, Abbott Laboratories, IL, USA) (5% induction, 1% to 3% maintenance in 200 mL/min oxygen). Respiration and heart rates of the animal were monitored (BioVet; m2m Imaging Corp, Cleveland, OH, USA) during the entire scanning period. The core body temperature of the animals was maintained via a temperature-controlled heating pad. The mouse was injected intravenously with 4.6 to 16.7 MBq of ^18F-SIG343 or ^18F-SIG353, with a constant mass of the unlabelled compounds of 0.06 nmol in 100 μL of saline (n = 3). A 120-min PET scan was performed on an Inveon multimodality positron emission tomography-computed tomography (PET/CT) system (Siemens Medical Solutions, Knoxville, TN, USA) followed by a 10-min CT scan on each subject for anatomical information. Image acquisition commenced simultaneously with radiotracer injection. The data was histogrammed into 25 consecutive frames, and activity volumes were reconstructed with an iterative reconstruction (OSEM/MAP) including attenuation and scatter correction, achieving a reconstructed spatial resolution of 1.5 mm. […] Regional activity data (Bq/cc) were extracted from nine selected volumes/regions of interest (VOIs/ROIs) where σ receptor distribution was reported and the tail and expressed as percentage of injected dose per cubic centimetres (%ID/cc).

σ2 receptor = target: T1, σ2 receptor (Mus musculus, UniProt Q8VD00); assay: In vivo blocking studies in A375 tumour-bearing mice; design: species or system Balb/C nude mice; conditions: unlabelled SIG353-treated group, 1 mg/kg, 30 min p.i.
T1 construct: from tissue; host or cells: organs of Balb/C nude mice in vivo; tumour xenograft of A375 human amelanotic melanoma cells
T1 sequence (Q8VD00 1-176): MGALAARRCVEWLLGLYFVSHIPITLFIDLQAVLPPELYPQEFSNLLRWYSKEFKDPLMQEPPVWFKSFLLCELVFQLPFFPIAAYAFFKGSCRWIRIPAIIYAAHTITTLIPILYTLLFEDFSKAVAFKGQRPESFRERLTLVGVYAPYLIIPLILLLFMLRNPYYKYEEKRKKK
Experimental: Female Balb/C nude mice aged 5 to 6 weeks old were obtained from the Animal Resource Centre (Perth, Australia). The animals were kept at a constant temperature of 22°C ± 2°C on a 12/12 h light/dark cycle with lights on at 09:00 am. Food and water were freely available. After a week of acclimatisation, mice were injected subcutaneously in the left flank with 1 × 10^6 A375 human amelanotic melanoma cells, in 100 μL of Ca^2+/Mg^2+-free phosphate buffered saline. The procedure was performed without anaesthetic. For in vivo studies, A375 tumour-bearing mice were used 26 days after tumour inoculation.
Blocking studies were performed to investigate the specific uptake of the tracer via σ2 receptor mechanism. […] Control mice received saline only. Five minutes after injection of the blocking drug, ^18F-SIG343 or ^18F-SIG353 (1 MBq/100 μL of saline) was injected, and groups of mice (n = 5) were sacrificed 30 min post injection of the radiotracer. Organs were processed as described for the biodistribution study. Radioactivity concentrations in the organs in the treatment groups were compared to that measured in control mice.

Row | SMILES | Unchanged form, Cortex ([1]; 15 min post injection) [%] | Unchanged form, Plasma ([1]; 15 min post injection) [%] | Unchanged form, Tumour ([1]; 15 min post injection) [%] | Unchanged form, Urine ([1]; 15 min post injection) | Unchanged form, Cortex ([1]; 60 min post injection) [%] | Unchanged form, Plasma ([1]; 60 min post injection) [%] | Unchanged form, Tumour ([1]; 60 min post injection) [%] | Unchanged form, Urine ([1]; 60 min post injection) [%] | Unchanged form, Plasma ([1]; 120 min post injection) [%] | Unchanged form, Urine ([1]; 120 min post injection) [%] | Tumour uptake by PET imaging [2] [%ID/cc] | Increase (↑) of radiotracer uptake in pancreas versus control (σ2 receptor) [%] | Unchanged form, Tumour ([1]; 120 min post injection)
1 | COc1cc2c(cc1OC)CN(CCCCN1C(=O)c3ccc([18F])cc3C1=O)CC2 [^18F-SIG343] | 87 ± 3.2 | 49 ± 7.5 | 79 ± 4.6 | 13% and 13 ± 1.2% | 83 ± 0.8 | 23 ± 3.8 | 85 ± 3.1 | 15 ± 4.3 | 16 ± 2.8 | 11 ± 5.4 | 0.9 |  | 
2 | COc1cc2c(cc1OC)CN(CCCCCN1C(=O)c3ccc([18F])cc3C1=O)CC2 [^18F-SIG353] | 85 | 60 ± 3.0 | 81 ± 4.5 | 5% and 5 ± 1.3% | 87 | 27 ± 5.1 | 85 ± 2.4 | 4 ± 0.4 | 17 ± 2.9 | 5 ± 1.2 | 1.3 | 37 | 65% and 65 ± 8.9%
